Reference: patent US20230210732A1, “REDUCTIVE TEETH WHITENING UTILIZING SALTS OF DITHIONITE” (CAO Group, Inc., priority 2022, published 2023)

Assay: whitening of stained extracted teeth, color scored against a classical VITA shade guide
Conditions: for tooth whitening (color vs classical VITA shade guide): teeth left in solution overnight, all teeth
Description: To evaluate these solutions, a collection of extracted teeth was examined and selected for dark color stains ranging from light yellow to brown. These teeth were then categorized and scored for color by comparing to a classical VITA shade guide. Then half of the teeth were then placed in a fresh solution of 15% sodium dithionite in water with unadjusted pH. The second half were placed in the solution adjusted to above pH 10. All teeth became whiter after remaining in solution overnight, especially light yellow to yellow stained teeth.

O=S([O-])S(=O)[O-].[Na+].[Na+] [sodium dithionite]
tooth whitening of brown stained teeth (15% sodium dithionite in water (unadjusted pH or above pH 10), overnight, brown teeth, less effect than light yellow to yellow teeth): whitened significantly | tooth whitening (color vs classical VITA shade guide) (15% sodium dithionite solution adjusted to above pH 10): became whiter | tooth whitening (color vs classical VITA shade guide) (fresh solution of 15% sodium dithionite in water, unadjusted pH): became whiter
